Converted amounts (≈) assume the structure as drawn. The source made the active and inactive calls. No cut-off for these calls is given here.
Assays:
[1] = human, microsomes, 0.5 h, 2 µM
[2] = Solubility of the compound in FaSSIF measured after 16 hrs by HPLC analysis; assay type: physicochemical
[3] = Fraction unbound in human plasma incubated for 4.5 hrs by LC/MS/MS analysis; assay type: ADME, cell-free
[4] = Apparent permeability from apical to basolateral side in dog MDCK cells at 20 uM at pH 7.4; assay type: ADME, cell-based, Canis lupus familiaris
[5] = molecular target: T1, Nuclear receptor ROR-gamma (Homo sapiens) (UniProt P51449); test: Displacement of [3H]-25-hydroxycholesterol from His-Flag-tagged human RORgammat LBD (309 to 508 residues) expressed in Escherichia coli at 10 uM measured after 4 hrs by Microbeta counter based analysis relative to control
T1 sequence (whole entry): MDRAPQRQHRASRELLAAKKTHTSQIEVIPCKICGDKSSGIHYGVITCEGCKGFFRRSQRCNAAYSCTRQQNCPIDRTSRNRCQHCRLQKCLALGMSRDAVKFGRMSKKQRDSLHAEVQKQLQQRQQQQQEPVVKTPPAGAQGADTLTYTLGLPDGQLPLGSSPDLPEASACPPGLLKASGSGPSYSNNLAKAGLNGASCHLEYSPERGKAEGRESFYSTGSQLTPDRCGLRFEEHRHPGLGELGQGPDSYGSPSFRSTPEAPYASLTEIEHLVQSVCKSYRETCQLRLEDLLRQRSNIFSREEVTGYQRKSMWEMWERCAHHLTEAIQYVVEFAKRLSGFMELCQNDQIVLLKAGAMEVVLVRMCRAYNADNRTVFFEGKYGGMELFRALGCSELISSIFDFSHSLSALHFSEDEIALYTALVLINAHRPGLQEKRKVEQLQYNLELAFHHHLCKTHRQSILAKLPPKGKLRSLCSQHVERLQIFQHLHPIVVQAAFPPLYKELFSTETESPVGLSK

PBMC = settings: Mus musculus, dose 30-100 mg/kg, time 20-24 hrs
Description: Inhibition of IL-17A secretion in antiCD3/IL-23 stimulated mouse PBMC cells in mouse plasma at 30 to 100 mg/kg when plasma exposure above 1.8 uM for 20 to 24 hrs

Mus musculus [6] = test: Antiinflammatory activity against glucose-6-phosphate isomerase induced arthritis mouse model assessed as reduction in IL-17 mRNA expression in paws at 30 mg/kg administered once daily for 21 days from GPI immunization by Taqman PCR analysis relative to control; assay type: functional; design: scale not given: the % may be the effect or the level left; settings: time 21 day
Mus musculus [7] = test: Antiinflammatory activity against glucose-6-phosphate isomerase induced arthritis mouse model assessed as reduction in IL-17 mRNA expression in paws at 3 mg/kg administered once daily for 21 days from GPI immunization by Taqman PCR analysis relative to control; assay type: functional; design: scale not given: the % may be the effect or the level left; settings: time 21 day
Mus musculus [8] = test: Antiinflammatory activity against glucose-6-phosphate isomerase induced arthritis mouse model assessed as reduction in IL-17 mRNA expression in paws at 10 mg/kg administered once daily for 21 days from GPI immunization by Taqman PCR analysis relative to control; assay type: functional; design: scale not given: the % may be the effect or the level left; settings: time 21 day
Mus musculus [9] = test: Antiinflammatory activity against glucose-6-phosphate isomerase induced arthritis mouse model assessed as improvement in clinical score at 10 to 30 mg/kg administered once daily for 21 days from GPI immunization; assay type: functional, organism-based; settings: dose 10-30 mg/kg, time 21.0 day
Mus musculus [10] = test: Antiinflammatory activity against glucose-6-phosphate isomerase induced arthritis mouse model assessed as complete prophylaxis at 100 mg/kg administered once daily for 21 days from GPI immunization; assay type: functional, organism-based; settings: time 21.0 day
cells = settings: Mus musculus, PBMC
Description: Inhibition of IL-17A secretion in antiCD3/IL-23 stimulated mouse PBMC cells in mouse plasma preincubated for 2 hrs followed by antiCD3/IL23 stimulation and measured after 6 hrs by Taqman PCR analysis

Structure (SMILES)	CL free [1]	solubility at 16 h [2]	fraction unbound at 4.5 h [3]	Papp A→B at 20 µM [4]	further results
CS(=O)(=O)c1ccc(CNC(=O)c2cc3c(s2)C2(CCN(Cc4ccc(Cl)cc4)CC2)OCC3)cc1	495 mL/min/kg				
CCS(=O)(=O)c1ccc(CNC(=O)c2cc3c(s2)C2(CCN([C@H](C)c4cnc(C(F)(F)F)nc4)CC2)O[C@@H](C)C3)cc1	36.2 mL/min/kg	24 µg/mL (≈ 38.5 µM)	0.041	7.57 ×10⁻⁶ cm/s	
CS(=O)(=O)c1ccc(CNC(=O)c2cc3c(s2)C2(CCN(Cc4ccc(C(F)(F)F)cc4)CC2)OCC3)cc1	448 mL/min/kg				
CCS(=O)(=O)c1ccc(CNC(=O)c2cc3c(s2)C2(CCN([C@H](C)c4cnc(C(F)(F)F)nc4)CC2)OCC3)cc1	69.5 mL/min/kg	16 µg/mL (≈ 26.3 µM)	0.056	8.56 ×10⁻⁶ cm/s	
COc1ccccc1-n1cc(CN2CCC3(CC2)OCC(F)(F)c2cc(Cl)sc23)c(C)n1					Activity [5]: 52%
CCS(=O)(=O)c1ccc(CNC(=O)c2cc3c(s2)C2(CCN([C@H](C)c4ccc(C#N)cc4)CC2)OCC3)cc1	406 mL/min/kg	9 µg/mL (≈ 16 µM)	0.02	7.07 ×10⁻⁶ cm/s	inhibition (PBMC): Active; Activity (Mus musculus [6]): 88%; Activity (Mus musculus [7]): 82%; Activity (Mus musculus [8]): 90%; Activity (Mus musculus [9]): Active; Activity (Mus musculus [10]): Active; IC50 (cells): 1800 nM
CCS(=O)(=O)c1ccc(CNC(=O)c2cc3c(s2)C2(CCN([C@H](C)c4ccc(C#N)cc4)CC2)OCC3)nc1	92.2 mL/min/kg	185 µg/mL (≈ 328 µM)	0.05	8.5 ×10⁻⁶ cm/s	
C[C@H](c1ccc(C#N)cc1)N1CCC2(CC1)OCCc1cc(C(=O)NCc3ccc(S(C)(=O)=O)cc3)sc12	218 mL/min/kg				
CCS(=O)(=O)c1ccc(CNC(=O)c2cc3c(s2)C2(CCN([C@H](C)c4cnc(C(F)(F)F)nc4)CC2)O[C@@H](C)C3)nc1	32 mL/min/kg	220 µg/mL (≈ 353 µM)	0.12	9.07 ×10⁻⁶ cm/s	
CS(=O)(=O)c1ccc(CNC(=O)c2cc3c(s2)C2(CCN(Cc4ccc(C#N)cc4)CC2)OCC3)cc1	80.7 mL/min/kg				
CS(=O)(=O)c1ccc(CNC(=O)c2cc3c(s2)C2(CCN(Cc4ccc(Cl)cc4Cl)CC2)OCC3)cc1	3450 mL/min/kg				

From ChEMBL document CHEMBL5053486, “Defining Target Engagement Required for Efficacy In Vivo at the Retinoic Acid Receptor-Related Orphan Receptor C2 (RORγt)” (J Med Chem, 2021)
